Values joined by “and” are separate entries in the source; they are usually repeats but may differ in a detail not shown here. Equal values may be shown once.
Test system: 521955-158-R2-J5-PDC spheroids with stroma, growth inhibition
Assay: Anticancer human tumor 521955-158-R2-J5-PDC patient-derived pancreatic carcinoma cell line growth inhibition [TAK]
Conditions: for viability, T/C: stronger effect = lower value
Source text: Combinatorial screen of targeted agents with TAK-243 and ipatasertib in multi-cell type tumor spheroids
A high-throughput screen of multi-cell type tumor spheroids was designed to identify active combinations of targeted small molecules and TAK-243 or ipatasertib. Complex spheroids include a stromal component modeled by human endothelial cells (HUVEC) and fibroblasts modeled by human mesenchymal stem cells (MSCs). The concentration ranges selected for each drug and investigational agent were based upon clinically achievable concentrations if the clinical Cmax of the agent was known.
Compounds. The drugs and investigational agents: TAK-243 (785004), ipatasertib (767898), everolimus (733504), selumetinib (741078), bortezomib (756655), trametinib (758246), ixazomib (758254), vemurafenib (761431), dabrafenib (764134), sapanisertib (764658), alpelisib (765974), and copanlisib (816437), were obtained from the National Cancer Institute (NCI) Developmental Therapeutics Program Chemical Repository. The FDA-approved anticancer drug set is available from the NCI Developmental Therapeutics Program. […] The stock solutions were prepared in dimethyl sulfoxide (DMSO, Sigma-Aldrich, St. Louis, MO, cat. D2650) at 800-fold the tested concentration and stored at -70 degrees C prior to their use. All drugs and investigational agents were tested over a range starting from a high concentration at or near the clinical Cmax and decreasing in half-log increments. If the clinical Cmax for an agent had not been determined, the highest concentration tested was 10 microM.
NCI60 Cell Culture. NCI60 cell lines were obtained from the NCI Developmental Therapeutics Program Tumor Repository. For each lot of cells, the Repository performed Applied Biosystems AmpFLSTR Identifiler testing with PCR amplification to confirm consistency with the published Identifier STR profile for each cell line. Cells were kept in continuous culture for no more than 20 passages. The optimal seeding densities for each of the cell lines at each time point assessed were determined prior to performing the concentration response studies. Briefly, the NCI60 human tumor lines were grown as monolayers in RPMI 1640 medium supplemented with 10% FBS and 2 mmol/L L-glutamine.
An additional 2 lines were from the NCI60 cell line panel including melanomas, MALME-3M and SK-MEL-2. Pooled donor human umbilical vein endothelial cells (HUVEC, Lonza, cat. CC-2519) and human mesenchymal stem cells (hMSC, Lonza, cat. PT-2501) were purchased from Lonza (Walkersville, MD).
PDMR cell lines were grown in complete medium (DC medium): Dulbecco's modified Eagle's medium (DMEM)/F12 supplemented with 5% fetal bovine serum (FBS), 2 mM L-glutamine, 100 U/mL penicillin and 100 µg/ml streptomycin, 0.4 µg/ml hydrocortisone, 10 ng/ml epidermal growth factor (EGF) recombinant human protein, 24 µg/mL adenine, and 0.1 mg/mL primocin. During culture from frozen stock vials, PDMR cells were cultured in the same medium containing 10 µM Y-27632 (see Table 3). The PDCs were cultured in complete DMEM/F12 media without 10 microM Y-27632 dihydrochloride for at least two passages prior to the screen. The pooled donor HUVEC and hMSC were cultured in endothelial cell growth medium 2 (PromoCell, Heidelberg, Germany, cat. C-22011) and mesenchymal stem cell growth medium 2 (PromoCell, cat. C-28009), respectively. For all experiments, HUVEC and hMSC were used at passages </=5.
For the pre-screen, cell seeding densities were determined from a titration spanning the range from 5,000 to 313 cells per well. The mct-spheroids including 60% malignant cells, 25% HUVEC and 15% MSC dispensed as a mixture into U-bottom Ultra-Low Attachment 384-well plates (Corning, NY)
High-throughput Drug Combination Screening.
Prior to their inoculation into 384-well plates, malignant cells, HUVEC, and hMSC were removed from T flasks using TrypLE express (Thermo Fisher Scientific, cat. 12605036) and harvested by centrifugation for 5 min at 233 x g. […]

[1] = curve of first compound, second compound 0.3 µM
[2] = curve of first compound, second compound 0.949 µM
[3] = curve of first compound, second compound 3 µM
[4] = curve of first compound, second compound 9.49 µM
[5] = curve of first compound, second compound 30 µM
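Further: spheroids exposed to drugs for seven days before readout.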
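Wherever viability, T/C is given: 100% = DMSO vehicle control viability.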

For `CC(=O)Nc1cccc(-n2c(=O)n(C3CC3)c(=O)c3c(Nc4ccc(I)cc4F)n(C)c(=O)c(C)c32)c1` + CC(C)NCC(C(=O)N1CCN(c2ncnc3c2C(C)CC3O)CC1)c1ccc(Cl)cc1, the IC50 [1] was 0.714 nM, the IC50 [2] was 0.283 nM and the IC50 [3] was 0.267 nM. For the same molecule, the IC50 [4] was 0.394 nM, the IC50 [5] was 0.109 nM and the viability, T/C (second compound 0.3 µM, first compound 94.9 pM) was 94.6%. It also gave a viability, T/C (second compound 0.3 µM, first compound 0.0003 µM) of 67.8%, a viability, T/C (second compound 0.3 µM, first compound 0.000949 µM) of 40.3% and a viability, T/C (second compound 0.3 µM, first compound 0.003 µM) of 33.8%. For the same molecule, the viability, T/C (second compound 0.3 µM, first compound 0.00949 µM) was 29.3%, the viability, T/C (second compound 0.3 µM, first compound 0.03 µM) was 17.7% and the viability, T/C (second compound 0.949 µM, first compound 94.9 pM) was 75.4%. It also gave a viability, T/C (second compound 0.949 µM, first compound 0.0003 µM) of 46.7%, a viability, T/C (second compound 0.949 µM, first compound 0.000949 µM) of 31.9% and a viability, T/C (second compound 0.949 µM, first compound 0.003 µM) of 19.5%. The viability, T/C (second compound 0.949 µM, first compound 0.00949 µM) was 11.9%, the viability, T/C (second compound 0.949 µM, first compound 0.03 µM) was 5.36% and the viability, T/C (second compound 3 µM, first compound 94.9 pM) was 62.6%. For the same molecule, the viability, T/C (second compound 3 µM, first compound 0.0003 µM) was 46.9%, the viability, T/C (second compound 3 µM, first compound 0.000949 µM) was 37.6% and the viability, T/C (second compound 3 µM, first compound 0.003 µM) was 22.1%. For the same molecule, the viability, T/C (second compound 3 µM, first compound 0.00949 µM) was 12.8%, the viability, T/C (second compound 3 µM, first compound 0.03 µM) was 4.27% and the viability, T/C (second compound 9.49 µM, first compound 94.9 pM) was 91.6%. The viability, T/C (second compound 9.49 µM, first compound 0.0003 µM) was 53.6%, the viability, T/C (second compound 9.49 µM, first compound 0.000949 µM) was 33.2% and the viability, T/C (second compound 9.49 µM, first compound 0.003 µM) was 20%. The viability, T/C (second compound 9.49 µM, first compound 0.00949 µM) was 10.8%, the viability, T/C (second compound 9.49 µM, first compound 0.03 µM) was 4.02% and the viability, T/C (second compound 30 µM, first compound 94.9 pM) was 51.5%. The viability, T/C (second compound 30 µM, first compound 0.0003 µM) was 38.6%, the viability, T/C (second compound 30 µM, first compound 0.000949 µM) was 18.3% and the viability, T/C (second compound 30 µM, first compound 0.003 µM) was 8.52%. It also gave a viability, T/C (second compound 30 µM, first compound 0.00949 µM) of 3.18% and a viability, T/C (second compound 30 µM, first compound 0.03 µM) of 0.96%.
`COc1c(OCCCN2CCOCC2)ccc2c3n(c(=NC(=O)c4cnc(N)nc4)nc12)CCN3` was tested, and the viability, T/C (compound 0.00316 µM) was 96.6% and 79.7%, the viability, T/C (compound 0.01 µM) was 71.7% and 68.7% and the viability, T/C (compound 0.0316 µM) was 48.8% and 53.6%. For the same molecule, the viability, T/C (compound 0.1 µM) was 29.3%, the viability, T/C (compound 0.316 µM) was 9.38% and 8.89% and the viability, T/C (compound 1 µM) was 8.06% and 7.65%. For the same molecule, the IC50 (curve of compound) was 28.8 nM and 36.1 nM.
For `COc1c(OCCCN2CCOCC2)ccc2c3n(c(=NC(=O)c4cnc(N)nc4)nc12)CCN3` + CC(C)NCC(C(=O)N1CCN(c2ncnc3c2C(C)CC3O)CC1)c1ccc(Cl)cc1, the IC50 [1] was 18.5 nM, the IC50 [2] was 5.05 nM and the IC50 [3] was less than 3.16 nM. For the same molecule, the IC50 [4] was less than 3.16 nM, the IC50 [5] was less than 3.16 nM and the viability, T/C (second compound 0.3 µM, first compound 0.00316 µM) was 69.3%. For the same molecule, the viability, T/C (second compound 0.3 µM, first compound 0.01 µM) was 60.2%, the viability, T/C (second compound 0.3 µM, first compound 0.0316 µM) was 40.2% and the viability, T/C (second compound 0.3 µM, first compound 0.1 µM) was 25.3%. The viability, T/C (second compound 0.3 µM, first compound 0.316 µM) was 7.66%, the viability, T/C (second compound 0.3 µM, first compound 1 µM) was 7.14% and the viability, T/C (second compound 0.949 µM, first compound 0.00316 µM) was 51%. The viability, T/C (second compound 0.949 µM, first compound 0.01 µM) was 48.7%, the viability, T/C (second compound 0.949 µM, first compound 0.0316 µM) was 31.4% and the viability, T/C (second compound 0.949 µM, first compound 0.1 µM) was 15.8%. It also gave a viability, T/C (second compound 0.949 µM, first compound 0.316 µM) of 8.04%, a viability, T/C (second compound 0.949 µM, first compound 1 µM) of 7.27% and a viability, T/C (second compound 3 µM, first compound 0.00316 µM) of 41%. For the same molecule, the viability, T/C (second compound 3 µM, first compound 0.01 µM) was 28%, the viability, T/C (second compound 3 µM, first compound 0.0316 µM) was 17.3% and the viability, T/C (second compound 3 µM, first compound 0.1 µM) was 10.1%. It also gave a viability, T/C (second compound 3 µM, first compound 0.316 µM) of 7.86%, a viability, T/C (second compound 3 µM, first compound 1 µM) of 7.56% and a viability, T/C (second compound 9.49 µM, first compound 0.00316 µM) of 23.8%. The viability, T/C (second compound 9.49 µM, first compound 0.01 µM) was 16.5%, the viability, T/C (second compound 9.49 µM, first compound 0.0316 µM) was 12.8% and the viability, T/C (second compound 9.49 µM, first compound 0.1 µM) was 8.78%. For the same molecule, the viability, T/C (second compound 9.49 µM, first compound 0.316 µM) was 7.47%, the viability, T/C (second compound 9.49 µM, first compound 1 µM) was 7.49% and the viability, T/C (second compound 30 µM, first compound 0.00316 µM) was 19.2%. The viability, T/C (second compound 30 µM, first compound 0.01 µM) was 13.1%, the viability, T/C (second compound 30 µM, first compound 0.0316 µM) was 8.7% and the viability, T/C (second compound 30 µM, first compound 0.1 µM) was 7.22%. The viability, T/C (second compound 30 µM, first compound 0.316 µM) was 6.67% and the viability, T/C (second compound 30 µM, first compound 1 µM) was 5.5%.
`CC(C)CC(NC(=O)CNC(=O)c1cc(Cl)ccc1Cl)B1OC(=O)CC(CC(=O)O)(C(=O)O)O1` (stereo unspecified) was tested, and the viability, T/C (compound 0.000316 µM) was 102% and 105%, the viability, T/C (compound 0.001 µM) was 111% and 93.8% and the viability, T/C (compound 0.00316 µM) was 96.3% and 92%. For the same molecule, the viability, T/C (compound 0.01 µM) was 93.5% and 92.7%, the viability, T/C (compound 0.0316 µM) was 80.1% and 72.8% and the viability, T/C (compound 0.1 µM) was 10% and 7.07%. The IC50 (curve of compound) was 50.8 nM and 47 nM.
For `Cc1nc(NC(=O)N2CCCC2C(N)=O)sc1-c1ccnc(C(C)(C)C(F)(F)F)c1` (stereo unspecified), the viability, T/C (compound 0.0316 µM) was 90.1% and 88.9%, the viability, T/C (compound 0.1 µM) was 88.6% and 71.4% and the viability, T/C (compound 0.316 µM) was 77.4% and 65.2%. For the same molecule, the viability, T/C (compound 1 µM) was 62.1% and 51.6%, the viability, T/C (compound 3.16 µM) was 49.1% and 47.6% and the viability, T/C (compound 10 µM) was 35.7% and 40.8%. For the same molecule, the IC50 (curve of compound) was 2680 nM and 1740 nM.

From PubChem BioAssay AID2060353 (Molecular Pharmacology Branch, DTP, NCI, 2025)
